Measurements taken from patent publication US20220142161A1, “METHOD OF IMPROVING THE GROWTH AND/OR THE YIELD OF PLANTS GROWN ON AGRICULTURALLY OR HORTICULTURALLY UTILIZED SUBSTRATES BY APPLYING A NITRICATION INHIBITOR ADDED TO THE IRRIGATION SYSTEM” (BASF SE, priority 2019, published 2022).

Tests used:
[1] = test system: nitrification in sandy loam soil (soil microbial biomass); test: Soil incubation with simulated drip irrigation: NH4 recovery and nitrification inhibition; details: for % NH4 recovery of applied NH4: 20° C., ammonium sulfate; for % nitrification inhibition: calculated according to equation 1
Method: (§1) In the examples a standardized sandy loam soil with coarse and very light texture was used.
For each test, three 500 ml plastic bottles were filled with 100 g of air dried soil each. Soil was moistened with deionized water to 50% of its water holding capacity. Then, the soil was incubated for two weeks at 20° C. to activate the microbial biomass. Ammonium sulfate was dissolved in deionized water in an amount corresponding to a nitrogen concentration of 10 g/L and supplemented by the desired amount of nitrogen inhibitor in an amount given in table 1. To each bottle 1 ml of the test solution was added by dripping the test solution with a pipette to the soil to simulate drop irrigation. Bottles were loosely capped to avoid contamination by dirt but to allow air exchange. The bottles were incubated at 20° C. for 0 to 42 days.
For determining the nitrogen content in the soil after incubation, to each bottle 300 mL of a 1% by weight solution of potassium sulfate in deionized water was added and the bottle was shaken for 2 h in a horizontal shaker at 150 rpm. Then the whole content of the bottle was filtered through a paper filter (MN 807 of Macherey-Nagel) and the filtrate was analyzed photometrically at 550 nm with respect to ammonium and nitrate by means of an auto analyzer AA11 of Merck.
Inhibition of nitrification was calculated by the following equation 1 (Bohland equation, DD 123771):
N (NO3) 1=Concentration of nitrogen contributed by NO3 without NI at the end of incubation
N (NO3) […]=Concentration of nitrogen contributed by NO3 with NI at the end of incubation
N (NO3) […]=Concentration of nitrogen contributed by NO3 at the beginning of incubation
The Examples were carried out in two separate series 1 and 2. All results are averages of 3 replications.

[2] = test system: nitrification in sandy loam soil; test: Leaching experiment in soil column with simulated drip irrigation; details: AS 90 mg N; NI/N (NH4) 0.8%; 9 days at 20° C., then about 43 mm precipitation; lower value = better inhibition
Method: as §1
100 g of air dried soil was filled in a 150 mL free draining column made of glass. Soil was moistened with deionized water to 50% of its water holding capacity. Then, the filled column was incubated for 24 h at 20° C. A solution of ammonium sulfate and optionally the nitrogen inhibitor in deionized water was deposited on the soil by means of a pipette to simulate drip irrigation. The amount of ammonium sulfate corresponds to 90 mg of nitrogen (N). The columns were then incubated for 9 days at 20° C. Then, deionized water was dripped to the soil corresponding to a precipitation of about 43 mm. Thereafter, the water was removed from the soil by applying a negative pressure until the moisture in the soil was 50% of its water holding capacity. The removed water (percolate) was collected and analyzed with regard to the total quantity of inorganic nitrogen (NH4 and NO3) as described for example 1. Since NH4 is more strongly bound to the soil compared to NO3 a lower nitrogen value indicates a better inhibition of nitrification.

[3] = first series, DAT14, NI/N (NH4) 0.8%
[4] = first series, DAT28, NI/N (NH4) 0.8%
[5] = first series, DAT42, NI/N (NH4) 0.8%
[6] = second series, DAT7, NI/N (NH4) 0.4%
[7] = second series, DAT14, NI/N (NH4) 0.4%
[8] = second series, DAT28, NI/N (NH4) 0.4%
[9] = second series, DAT42, NI/N (NH4) 0.4%
[10] = first series, DAT14, NI/N (NH4) 10%
[11] = first series, DAT28, NI/N (NH4) 10%
[12] = first series, DAT42, NI/N (NH4) 10%
[13] = second series, DAT7, NI/N (NH4) 0.8%
[14] = second series, DAT14, NI/N (NH4) 0.8%
[15] = second series, DAT28, NI/N (NH4) 0.8%
[16] = second series, DAT42, NI/N (NH4) 0.8%

## 2-(3,4-dimethyl-1H-pyrazol-1-yl)succinic acid and 2-(4,5-dimethyl-1H-pyrazol-1-yl)succinic acid [DMPSA]
[1]; conclusion from tables 1 and 2
  inhibition of nitrification in drip irrigation compared to DCD and Nitrapyrin: longer and stronger inhibition of nitrification
[1]; [3]
  % NH4 recovery of applied NH4: 82%
  % nitrification inhibition: 74%
[1]; [4]
  % NH4 recovery of applied NH4: 48%
  % nitrification inhibition: 59%
[1]; [5]
  % NH4 recovery of applied NH4: 27%
  % nitrification inhibition: 34%
[1]; half amount of DMPSA gives comparable nitrification inhibition
  effectiveness relative to DMPP: almost twice effective as DMPP
[1]; [6]
  % NH4 recovery of applied NH4: 82%
  % nitrification inhibition: 76%
[1]; [7]
  % NH4 recovery of applied NH4: 73%
  % nitrification inhibition: 75%
[1]; [8]
  % NH4 recovery of applied NH4: 61%
  % nitrification inhibition: 66%
[1]; [9]
  % NH4 recovery of applied NH4: 63%
  % nitrification inhibition: 56%
[2]
  Total N: total quantity of inorganic nitrogen (NH4 and NO3) in percolate: 6.0 mg

## N#CN=C(N)N [DCD, dicyandiamide]
[1]; [10]
  % NH4 recovery of applied NH4: 63%
  % nitrification inhibition: 59%
[1]; [11]
  % NH4 recovery of applied NH4: 13%
  % nitrification inhibition: 15%
[1]; [12]
  % NH4 recovery of applied NH4: 0%
  % nitrification inhibition: 3%

## Cc1c[nH]nc1C.O=P(O)(O)O [DMPP, 3,4-dimethyl pyrazole phosphate]
[1]; [13]
  % NH4 recovery of applied NH4: 75%
  % nitrification inhibition: 70%
[1]; [14]
  % NH4 recovery of applied NH4: 71%
  % nitrification inhibition: 76%
[1]; [15]
  % NH4 recovery of applied NH4: 64%
  % nitrification inhibition: 66%
[1]; [16]
  % NH4 recovery of applied NH4: 66%
  % nitrification inhibition: 61%
[2]
  Total N: total quantity of inorganic nitrogen (NH4 and NO3) in percolate: 6.3 mg

## Clc1cccc(C(Cl)(Cl)Cl)n1 [Nitrapyrin, 2-chloro-6-(trichloromethyl)pyridine]
[1]; [3]
  % NH4 recovery of applied NH4: 31%
  % nitrification inhibition: 33%
[1]; [4]
  % NH4 recovery of applied NH4: 3%
  % nitrification inhibition: 4%
[1]; [5]
  % NH4 recovery of applied NH4: 0%
  % nitrification inhibition: −2%
[2]
  Total N: total quantity of inorganic nitrogen (NH4 and NO3) in percolate: 7.1 mg
